Source: ChEMBL document CHEMBL1150863, “New triterpenoid saponins from the sponge Erylus nobilis” (2001)
Converted amounts (≈) assume the structure as drawn.

test system: K562; assay: Cytotoxicity against human K562 cells; format: functional; settings: read-out: LC50 (the source's name)

`C=C(CC[C@@H](C)[C@H]1CC[C@@]2(C(=O)O)C3=C(CC[C@]12C)[C@@]1(C)CCC(O[C@@H]2O[C@H](CO)[C@H](O)[C@H](O[C@@H]4OC[C@H](O)[C@H](O)[C@H]4O)[C@H]2O[C@@H]2O[C@H](CO)[C@@H](O)[C@H](O)[C@H]2NC(C)=O)C(C)(C)[C@@H]1CC3)C(C)C` (some centres undefined) [ERYLOSIDE G] and `C=C(CC[C@@H](C)[C@H]1CC[C@@]2(C(=O)O)C3=C(CC[C@]12C)[C@@]1(C)CCC(O[C@@H]2O[C@H](CO)[C@H](O)[C@H](O[C@@H]4OC[C@H](O)[C@H](O)[C@H]4O)[C@H]2O[C@@H]2O[C@H](CO)[C@@H](O)[C@H](O)[C@H]2NC(C)=O)C(C)(C)[C@@H]1CC3)C(C)(C)C` (some centres undefined) [ERYLOSIDE I] are within 1.5-fold of each other in CC50: 22.1 µg/mL (≈ 22.8 µM) for the first, 17.9 µg/mL (≈ 18.2 µM) for the second.

`C=C(CC[C@@H](C)[C@H]1CC[C@@]2(C(=O)O)C3=C(CC[C@]12C)[C@@]1(C)CCC(O[C@@H]2OC[C@H](O)[C@H](O[C@@H]4OC[C@H](O)[C@H](O)[C@H]4O)[C@H]2O[C@@H]2O[C@H](CO)[C@@H](O)[C@H](O)[C@H]2NC(C)=O)C(C)(C)[C@@H]1CC3)C(C)C` (some centres undefined) [ERYLOSIDE H] and `C=C(CC[C@@H](C)[C@H]1CC[C@@]2(C(=O)O)C3=C(CC[C@]12C)[C@@]1(C)CCC(O[C@@H]2OC[C@H](O)[C@H](O[C@@H]4OC[C@H](O)[C@H](O)[C@H]4O)[C@H]2O[C@@H]2O[C@H](CO)[C@@H](O)[C@H](O)[C@H]2NC(C)=O)C(C)(C)[C@@H]1CC3)C(C)(C)C` (some centres undefined) [ERYLOSIDE J] are within 1.5-fold of each other in CC50: 24.8 µg/mL (≈ 26.4 µM) for the first, 21.8 µg/mL (≈ 22.9 µM) for the second.
